Data published in PMC3589550 (Nature structural & molecular biology, 2011).
Ends that are not written are not given here.

Legend:
[1] = molecular target: HAUSP TRAF domain (HAUSP^62–205) (Homo sapiens, UniProt Q93009); assay type: binding; conditions: ITC
[2] = system: HAUSP TRAF domain; assay: Competitive ITC: vIRF4^202–216 vs cellular substrate peptides on the TRAF domain; assay type: binding
[3] = molecular target: T1, HAUSP (Homo sapiens, UniProt Q93009); assay: Co-IP / GST pull-down of HAUSP; assay type: binding; conditions: transfected 293T cells
[4] = molecular target: T1, HAUSP; assay: In vitro deubiquitination; assay type: biochemical
[5] = molecular target: T1, HAUSP; assay: In vitro DUB assay with ubiquitinated MDM2; assay type: biochemical; conditions: HAUSP preincubated with increasing concentrations of peptide
[6] = system: PEL cells; assay: Immunoblot of p53 and transcriptional targets, PEL cells; assay type: cell-based; conditions: various PEL cells, 6 h
[7] = system: BJAB cells; assay: Immunoblot of p53 pathway proteins, BJAB; assay type: cell-based; conditions: 6 h

T1 sequence (Q93009 whole entry): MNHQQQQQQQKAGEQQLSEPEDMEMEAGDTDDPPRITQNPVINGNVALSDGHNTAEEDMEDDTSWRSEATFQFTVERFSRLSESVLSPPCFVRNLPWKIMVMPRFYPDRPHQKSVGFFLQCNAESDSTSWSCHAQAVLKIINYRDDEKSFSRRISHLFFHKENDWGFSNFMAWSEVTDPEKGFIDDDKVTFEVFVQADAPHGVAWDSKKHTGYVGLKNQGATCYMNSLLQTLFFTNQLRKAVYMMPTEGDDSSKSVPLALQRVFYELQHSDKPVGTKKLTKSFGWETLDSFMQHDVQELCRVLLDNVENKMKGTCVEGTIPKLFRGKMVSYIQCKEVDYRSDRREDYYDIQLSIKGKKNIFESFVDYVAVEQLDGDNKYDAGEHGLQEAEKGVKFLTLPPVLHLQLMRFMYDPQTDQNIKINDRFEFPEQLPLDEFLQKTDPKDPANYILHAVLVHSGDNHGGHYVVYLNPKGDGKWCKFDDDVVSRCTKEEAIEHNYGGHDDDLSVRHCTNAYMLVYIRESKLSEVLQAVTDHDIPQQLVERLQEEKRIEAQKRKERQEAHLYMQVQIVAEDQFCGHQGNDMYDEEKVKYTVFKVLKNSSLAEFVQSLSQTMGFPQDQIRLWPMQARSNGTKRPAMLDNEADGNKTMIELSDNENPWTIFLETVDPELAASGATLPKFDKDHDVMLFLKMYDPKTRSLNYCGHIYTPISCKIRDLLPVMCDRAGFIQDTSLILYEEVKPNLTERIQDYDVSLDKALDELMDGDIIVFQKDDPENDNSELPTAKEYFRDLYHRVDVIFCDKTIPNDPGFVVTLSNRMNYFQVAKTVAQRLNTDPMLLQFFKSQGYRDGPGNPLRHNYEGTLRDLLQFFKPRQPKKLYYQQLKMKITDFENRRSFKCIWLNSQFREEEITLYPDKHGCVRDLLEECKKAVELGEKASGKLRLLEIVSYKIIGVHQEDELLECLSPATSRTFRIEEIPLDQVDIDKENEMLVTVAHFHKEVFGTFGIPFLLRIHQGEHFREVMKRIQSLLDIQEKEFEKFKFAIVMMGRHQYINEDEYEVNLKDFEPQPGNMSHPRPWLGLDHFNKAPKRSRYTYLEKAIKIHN
Chain of HAUSP TRAF domain (HAUSP^62–205) (Q93009 62-205): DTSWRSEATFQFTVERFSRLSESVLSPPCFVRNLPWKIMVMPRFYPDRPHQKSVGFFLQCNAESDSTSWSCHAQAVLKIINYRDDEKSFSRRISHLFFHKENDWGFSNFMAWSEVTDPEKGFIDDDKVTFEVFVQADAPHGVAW

Molecule	TRAF binding affinity, in words [1]	observed association constant (Kobs) ([2]; vIRF4^202–216 titrated as competitor against MDM2^137–152) [M⁻¹]	observed association constant (Kobs) ([2]; vIRF4^202–216 titrated as competitor against p53^350–364) [M⁻¹]	observed association constant (Kobs) ([2]; vIRF4^202–216 titrated as competitor against p53^355–369) [M⁻¹]	interaction with HAUSP [3]	HAUSP enzymatic activity against K48-linked polyubiquitin chains ([4]; K48-linked polyubiquitin chains)	HAUSP DUB activity ([4]; purified HAUSP, K48- or K63-linked 3–7 polyubiquitin chains)	HAUSP DUB activity toward ubiquitinated MDM2 [5]	HAUSP levels [6]	HAUSP levels [7]	association constant (Ka) ([2]; substrate peptide titrated into the HAUSP TRAF domain) [M⁻¹]
CC[C@H](C)[C@H](NC(=O)[C@H](Cc1c[nH]c2ccccc12)NC(=O)[C@@H](NC(=O)[C@@H](N)CO)C(C)C)C(=O)N1CCC[C@H]1C(=O)N[C@H](C(=O)N[C@@H](CC(N)=O)C(=O)N[C@@H](CCC(=O)O)C(=O)NCC(=O)N[C@@H](C)C(=O)N[C@@H](CO)C(=O)N[C@H](C(=O)N[C@@H](CO)C(=O)NCC(=O)N[C@@H](CCSC)C(=O)O)[C@@H](C)O)C(C)C [vif1]	binds to the HAUSP TRAF domain with the highest affinity among all reported substrates	1.09e+07	4.42e+07	3.58e+07	individually capable of interacting with HAUSP	ineffectiveness against K48-linked polyubiquitin chains	minimally inhibited activity	effectively blocked HAUSP DUB activity when ubiquitinated MDM2 was used as a substrate	Neither the vif1 nor vif2 peptide treatment altered HAUSP levels	Neither the vif1 nor vif2 peptide treatment altered HAUSP levels	–
DLVQELQEEKPSSSHL [MDM2^137–152, reference compound]	–	–	–	–	–	–	–	–	–	–	91000
